One series relates to tubulin. Nature of the series: Inhibition of tubulin polymerization (assembly assay). The class given is biochemical. To be noted: tubulin at 10 μM, read-out: Tubulin IC50 ± SD. The method, then:
The assembly reaction mixtures contained 0.8 M monosodium glutamate (pH 6.6 with HCl in a 2 M stock solution), 10 μM tubulin, 4% (v/v) DMSO, and varying concentrations of the drug. Following a 15 min preincubation at 30 °C, samples were chilled on ice, GTP to 0.4 mM was added, and turbidity development was followed at 350 nm in a temperature-controlled recording spectrophotometer for 20 min at 30 °C. The extent of reaction was measured. Full experimental details were previously described.[63] For the colchicine binding assay, reaction mixtures contained 1.0 μM tubulin, 5.0 μM [^3H]colchicine, and 5.0 or 1.0 μM inhibitor and were incubated for 10 min at 37 °C. Complete details were described previously.[64]

The subject of series [1] is MCF-7 human breast carcinoma cells. Nature of the series: Inhibition of the growth of MCF-7 human breast carcinoma cells. Format: cell-based. The method, then:
(§1) The methodology for the evaluation of the growth of human MCF-7 breast carcinoma cells was previously described, except that cells were grown for 96 h for IC50 determinations.[66] U-87 MG and OVCAR-3 proliferation assays were performed plating 10^4 cells/cm^2 in a Multiwell 24. The day after, cells were treated with compound 15, and DMSO was used as a control. Cells were counted 48 h later with a Bürker counting chamber, after dilution in TrypanBlue (#T6146 Sigma-Aldrich).

In the next series the test system is U-87 MG GBM cells. The series can be described thus: U-87 MG proliferation assay (cell count, Trypan Blue). Format: cell-based. To be noted: Homo sapiens, 48 h incubation, read-out: IC50 cell viability U-87 MG. The method, then:
as §1
All experiments were performed multiple times to reach statistical significance, as specified in the figure legends. Statistical analysis was performed using GraphPad Prism version 7.0 for Mac. IC50 values were calculated by using a nonlinear regression formula, using the percentage of cells number and the logarithmic value of drug concentrations. Data were analyzed with analysis of variance (one-way ANOVA test). Data with *p < 0.05 were considered statistically significant.

Series [2] relates to PARP cleavage in OVCAR-3 cells. Nature of the series: PARP cleavage by western blot in OVCAR-3 cells. To be noted: immunoblotting. Format: cell-based, human. The method, then: Western blotting was performed as previously described[68] by lysing cells in denaturing buffer sodium dodecyl sulfate (SDS)–urea. Extracts were sonicated, their protein quantified, and aliquots were loaded into an SDS–polyacrylamide gel. After electrophoresis, the proteins in the gel were transferred onto a nitrocellulose membrane (cat. no. NBA085C001EA, PerkinElmer), which then was blocked with 5% milk in TBS-T (Tris HCl with 0.1% Tween 20) and incubated with primary antibodies overnight: PARP antibody diluted 1:1000 (cat. no. 9542S CST) and actin antibody diluted 1:10,000 (cat. no. A5441, Sigma Aldrich). The next day, the membrane was extensively washed with TBS-T and incubated with horse radish peroxidase (HRP)-conjugated secondary antibodies diluted in the 5% milk solution. Detection of the HRP signal was performed using ECL (cat. no. K-12045-D50, Advansta).

For series [3], the system named is human primary T lymphocytes. The series can be described thus: Toxicity on human primary T lymphocytes (annexin V / propidium iodide flow cytometry). To be noted: 48 or 72 h. Format: cell-based. The method, then:
Cell lines were obtained from the American Type Culture Collection (ATCC), Rockville, MD. U87 MG cells were cultured in minimum essential medium (MEM) supplemented with 10% fetal bovine serum, 1% penicillin/streptomycin, 1% glutamine, 1% sodium pyruvate, and 1% nonessential amino acids. OVCAR-3 cells were cultured in Dulbecco’s modified eagle medium (DMEM) purchased from Sigma Aldrich (cat. no. D6546) supplemented with 20% fetal bovine serum,1% penicillin/streptomycin, 1% glutamine, 1% sodium pyruvate, 1% Hepes, and 0.01 μg/mL insulin (Sigma Aldrich, cat. no. 19278). […] Healthy donors’ peripheral blood mononuclear cells (PBMCs) were isolated by Lymphoprep (Nycomed) gradient centrifugation. T lymphocytes were negatively selected from PBMCs using a magnetic Dynabeads Untouched Human T Cells Kit (Thermo Fisher Scientific) following the manufacturer’s instructions.
Apoptotic cell death was evaluated using the APC Annexin-V Apoptosis Detection Kit with PI (Thermo Fisher Scientific). Briefly, 1.5 × 10^6/mL cells were cultured in 48-well plates, untreated or treated with different concentrations of 15 for 48 or 72 h. Cells were then stained using annexin-V/APC and propidium iodide according to the manufacturer’s instructions. Cell populations were acquired using a FACS Canto II flow cytometer (BD Biosciences). […]

Series [4] is described as follows: Metabolic stability in human liver microsomes. The class given is in vitro ADME. The method, then:
(§2) Mouse (Sigma Aldrich, CD-1 male, pooled) and human microsomes (Sigma Aldrich, human, pooled) at 0.5 mg/mL were preincubated with the test compound 15 dissolved in DMSO at 1 μM in phosphate buffer 50 mM, pH 7.4, and 3 mM MgCl2 for 10 min at 37 °C. The reaction was then started by adding the cofactor mixture solution (NADP, glucose-6-phosphate, glucose-6-phosphate dehydrogenase in 2% NaHCO3). Samples were taken at 0, 10, 30, 45, and 60 min and added to acetonitrile to stop the reaction. Samples were then centrifuged, and the supernatant was analyzed by LC–MS/MS to quantify the amount of the compound. A control sample without the cofactor was always added to check the chemical stability of the test compound. […] A fixed concentration of verapamil was added in every sample as an internal standard for LC–MS/MS analyses. The percentage of the area of the test compound remaining at the various incubation times was calculated with respect to the area of the compound at time 0 min.
(§3) The rate constant, k (min^–1), derived for the exponential decay equation (peak area/IS vs time), was used to calculate the rate of Cli.
(§4) Samples were analyzed under the following conditions: UPLC Waters coupled with an API 3200 triple-quadrupole (ABSciex); eluents, (phase A) 95% water, 5% acetonitrile + 0.1% HCOOH, (phase B) 5% water, 95% acetonitrile + 0.1% HCOOH; flow rate, 0.3 mL/min; column, Gemini-Nx 5 μm C18 110A (50 × 2.00 mm) at 35 °C; injection volume, 10 μL. Source conditions ESI positive: T 400 °C, Gas 1 30, Gas 2 35, CUR 30, IS 5500, CAD 5.

A short description of series [5]: Metabolic stability in mouse liver microsomes. The class given is in vitro ADME. The method, then:
as §2, §3, §4

The structures appear in SMILES notation. “And” between values parts separate entries of the source, which are not always exact repeats. Equal entries are not always repeated. “Also recorded” adds a separate entry of the source.

Turning to `COc1cc(C(=O)c2cn(-c3ncccn3)cc2-c2ccco2)cc(OC)c1OC` [Compound 15, (4-(Furan-2-yl)-1-(pyrimidyl-2-yl)-1H-pyrrol-3-yl)(3,4,5-trimethoxyphenyl)methanone], the IC50 in the series on tubulin is 520 ± 70 nM; in series [1] (Homo sapiens, MCF7, inhibition of cell growth, cells grown for 96 h, read-out: MCF-7 IC50 ± SD), 4 ± 1 nM; in the series with U-87 MG GBM cells, 10.1 nM. Besides, the “Inhibition of MCF-7 cell growth (in words)” value in series [1] was “strong inhibition”. Moreover, the “concentration from which cleaved PARP increases” value in series [2] is on record as no less than 5 nM. For the same compound, the entries for the “cell viability / toxicity” value in series [3] (0.1 μM) and in series [3] (1.0 or 2.5 μM) were “did not change cell viability; also recorded: not toxic” and “some cytotoxicity was observed”, respectively. The “Cli ± SD” value in series [4] (HLM 0.5 mg/mL, 1 μM, n = 2) was 36 μL/min/mg protein and 35.9 ± 0.2 μL/min/mg protein; in series [5] (MLM 0.5 mg/mL, 1 μM, n = 2), 461 μL/min/mg protein and 461.1 ± 45.5 μL/min/mg protein. The half-life at 1 h, 1 µM in series [4] (human, liver microsomes, pH 7.4, HLM 0.5 mg/mL, 1 μM, n = 2, read-out: t1/2 ± SD) was 38.7 ± 0.2 min; in series [5] (male, CD-1, mouse, liver microsomes, pH 7.4, MLM 0.5 mg/mL, 1 μM, n = 2, read-out: t1/2 ± SD), 3 ± 0.3 min. Further, the microsomal CLint at 1 μM is 1.8 to 48 µL/min/mg in series [4] (pH 7.4, human liver microsomes, read-out: intrinsic clearance classification) and greater than 66 µL/min/mg in series [5] (male, CD-1, pH 7.4, mouse liver microsomes, read-out: intrinsic clearance classification).
